The text below walks through data of publication PMC10269895 (Microbiology Spectrum, 2023).

In data set [1] the test system is PDE3A, acetylcholinesterase, MAO-A, Na+/K+-ATPase. Conditions: 0.01 mM.
Procedure: The targets were human recombinant proteins unless a different species is stated. All tests were conducted at a peptide concentration of 0.01 mM according to CEREP procedures.
Pharmacological off-target profiling was conducted by CEREP (Celle-Le’vescault, France) to investigate inhibitory effects against the targets specified in Fig. 3 and 4. […] We selected 19 G-protein-coupled receptors (acetylcholine, adenosine, androgens, cannabinoids, dopamine, histamine, opioids, and serotonin), eight ion channels (Gly, nicotinic acetylcholine receptor [nAChR], phencyclidine [PCP], Cav1.2, Kv, SKCa, and γ-aminobutyric acid-gated chloride channels [GABACl]), two transporters (dopamine transporter [DAT] and noradrenaline transporter [NET]), and four enzymes (phosphodiesterase [PDE], acetylcholinesterase, monoamine oxidase (MAO), and Na^+/K^+-ATPase) for testing.
The nature of the next data set: Plasma stability. Conditions: for Degradation: after 4 h. The class given is in vitro ADME. How it is done: For plasma clearance, peptides were dissolved as 1 mM stock solutions in sterile deionized water and incubated at 37°C in 500 μL plasma derived from different species (human, mouse, and rat) at a final concentration of 5 μM. At different time points (0, 1, and 4 h), 100-μL samples were transferred to 500 μL ethanol containing 0.5% (vol/vol) ammonia, and plasma proteins were precipitated for 20 min at 1,735 × g. Each 10-μL supernatant sample was separated on a Triart C18 column (1.9 μm, 20 by 2 mm; YMC, Kyoto, Japan) with an ascending acetonitrile gradient in water (supplemented with 0.1% formic acid), at a flow rate of 500 μL/min. Samples were analyzed in triplicate by LC-MS/MS as above, and the stability of the parent peptides was evaluated based on the comparison of blank samples with incubated samples.

The nature of data set [2]: In vivo tolerability study in uninfected mice. Also on record: species or system Swiss mice. Conditions: 30 mg/kg single i.v. bolus in NaCl (0.9%). How it is done: We first performed a tolerability study in uninfected mice by injecting GE81112A at up to 30 mg/kg, formulated in NaCl (0.9%), via intravenous (i.v.) bolus administration.
All animal studies were performed in accordance with relevant guidelines and regulations. A 30 mg/kg dose of GE81112A, formulated in 0.9% NaCl, was administered to noninfected Swiss mice (n = 3), using a single i.v. bolus. Adverse events and animal weights were monitored for 24 h after administration.

A short description of data set [3]: Metabolic stability in liver microsomes. The class given is in vitro ADME. Conditions: 5 μM. How it is done:
Microsomal preparations from human and animal species were used at a protein concentration of 1 mg/mL, and the cofactor NADPH was added to a final concentration of 1 mM to assay for CYP and flavin-containing monooxygenase (FMO) lability. GE81112A at 5 μM was incubated for 20 min at 37°C. The enzymatic reaction was initiated by a rapid temperature increase in a water bath at 37°C. It was stopped by a rapid temperature decrease in an ice bath at 0°C and subsequent addition of 5 volumes of precooled acetonitrile (500 μL). Loss of parent GE81112A concentration, as a percentage, was determined using LC-MS/MS measurements, where 100% was the measurement at time zero.

A short description of data set [4]: Cellular permeability assay using the CaCo2/TC7 cell line. The class given is in vitro ADME, human. Conditions: human, Caco-2; 1 or 20 μM, apical-to-basolateral, 120 min, pH 7.4; read-out: Apparent permeability. How it is done:
(§1) CaCo2/TC7 cells were seeded in a Falcon 24-well multiwell insert system with 1.0-μm-pore high-density polyethylene terephthalate (PET) membrane plates, at a density of 60,000 cells per well in DMEM (high glucose, with Glutamax I, without HEPES, with 20% fetal calf serum [FCS], and with penicillin-streptomycin). The cells were incubated for at least 21 days to ensure complete differentiation, polarization, and formation of a tight barrier layer. Permeability assays were performed in Hanks’ balanced salt solution (HBSS) with sodium taurocholate (186 μM), HEPES (10 mM), and bovine serum albumin (BSA) (0.5% [wt/vol]), adjusted to pH 7.4 with sodium hydroxide (1 N). GE81112A at 1 and 20 μM was assayed for 120 min in the apical-to-basolateral direction with an apical pH of 7.4 and a basolateral pH of 7.4, without a BSA gradient (0.5%) on either side. After the incubation period, apical and basolateral concentrations of GE81112A were determined using liquid chromatography-tandem mass spectrometry (LC-MS/MS).
In general terms: Caco-2 monolayers are a common model of the intestinal barrier.

The test system of another data set is CaCo2/TC7 cells. Described as above. The class given is in vitro ADME, human. Conditions: predicted from CaCo2/TC7 permeability. How it is done: as §1
The test system of a further data set is HepG2 cells. The experiment in a line: Cytotoxicity (CellTiter-Glo ATP and neutral red uptake). Conditions: 24 h; highest concentration with cell viability of >80%. The class given is cell-based, human. How it is done: The toxicity of GE81112A toward human hepatocellular carcinoma HepG2 HB-8065 (ATCC) cells and freshly isolated primary Sprague-Dawley rat hepatocytes (Charles River) was assessed by using the CellTiter-Glo ATP-monitoring kit (Promega) and by quantifying the ability to store the dye neutral red (neutral red uptake [NRU] solution; Sigma-Aldrich, St. Louis, MO, USA). The assay was conducted in 96-well microtiter plates in a test volume of 200 μL. GE81112A was tested in an 8-fold 1:2 dilution series with a final concentration range of […]. HepG2 cells or primary hepatocytes were maintained at 37°C in 5% CO2 in DMEM-F-12 medium containing 1% nonessential amino acids, 1% sodium pyruvate, and 10% heat-inactivated FCS. Prior to each test, 100 μL of culture medium was added to each well (each containing about 20,000 cells), and the plates were incubated for 16 h as described above. GE81112A was diluted in culture medium to obtain appropriate concentrations and was added to the wells as six replicates. […] After incubation for 24 h as described above, cell viability was calculated either by cell lysis and subsequent luminometric quantification of the ATP concentration in each sample or by measurement of the amount of neutral red taken up by the cells. NRU was measured at 540 nm (Tecan Genios Pro) after 3 h of incubation with NRU solution and subsequent cell lysis. […]

The nature of data set [5]: Chemical stability in the presence of GSH. Conditions: incubation for 168 h. The class given is physicochemical. How it is done: Based on a stock solution of 0.2 mg GE81112A in 1,548 μL methanol, three different samples were prepared in triplets (test mixture: 100 μL stock solution, 2 μL DMSO, and 1 μL DMSO containing 1.5 GSH equivalents; reference sample A: 200 μL stock solution; reference sample B: 200 μL stock solution and 2 μL DMSO). All samples were measured at three different time points (0 h, 24 h, and 168 h) on a MaXis II system (Bruker).

With `NC(=O)OC[C@@H](O)C[C@H](NC(=O)[C@H]1NCCC[C@H]1O)C(=O)N[C@@H](Cc1c[nH]cn1)C(=O)N[C@H](C(=O)O)[C@H](O)c1cnc(Cl)[nH]1` [GE81112A], in data set [1], the “Off-target inhibitory effects, enzyme and uptake assays” value is “no critical inhibiting effect”. In addition, the metabolised at 1 h, 1 μM in the data set “Plasma stability” (human blood plasma, 37°C, 1 h, read-out: Hydrolysis) was determined as 3%. Moreover, the metabolised at 4 h, 1 μM in the data set “Plasma stability” (human blood plasma, 37°C, 4 h, read-out: Hydrolysis) stood at 27%. Further, the Degradation result in “Plasma stability” (mouse blood plasma) and in the data set “Plasma stability” (rat blood plasma) was “No degradation” throughout. Moreover, the “Tolerability (signs of toxicity or adverse effects)” value in data set [2] is “did not show any sign of toxicity or adverse effects”. In addition, the Oxidative metabolic lability entry in data set [3] (human liver microsomes), in data set [3] (mouse liver microsomes) and in data set [3] (rat liver microsomes) was “low” in each case. The Papp at 120 min in data set [4] fell in the range of 0.28 to 3.16 nm/s. The “Absorption in the human intestine (predicted)” value with CaCo2/TC7 cells is “low”. In the data set on HepG2 cells, the “No observed effect concentration (NOEC)” value amounted to 15.6 µM. Further, in data set [5], the “Stability in the presence of glutathione (GSH)” value is listed as “no degradation or formation of adducts”.
